The text below walks through data of BindingDB's records for PubMed 3702863 (R. J. Reynolds Tobacco, 1986).

Structures are written as SMILES. pKi: −log10 of the molar value.

Nicotinic acetylcholine receptor, sequence (Q62594 whole entry): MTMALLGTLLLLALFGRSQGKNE

This assay addresses Nicotinic acetylcholine receptor (Rattus leucopus, UniProt Q62594).
What is called pKi is the Ki on a negative log10 scale, so that one unit is a factor of ten. `COc1cc(CC(C)N)cc(OC)c1OC` (configuration not stated) showed a negative logarithm of the Ki (pKi) of 6.43.

`C=C(C=O)C[C@H]1C[C@H](O)[C@]2(C)O[C@@H]3C[C@@H]4O[C@@H]5C[C@]6(C)O[C@]7(C)CC[C@@H]8O[C@@H]9C[C@]%10(C)O[C@@H]%11C(C)=CC(=O)O[C@H]%11C[C@H]%10O[C@H]9C[C@@H](C)[C@H]8O[C@H]7C[C@H]6O[C@@]5(C)C/C=C\[C@H]4O[C@H]3C[C@H]2O1` had a pKi below 5.00. In the case of `CN1C(=O)CCC1c1cccnc1` (configuration not stated) [CAS_21906], the pKi was 5.30. `C[N+](C)(C)CCCCCCCCCC[N+](C)(C)C` [Decamethonium Iodide] gave a pKi of 5.51. For the compound `C[N+](C)(C)CCCCCC[N+](C)(C)C` [Hexamethoniumdibromide], the pKi was below 5.00. With `CN1[C@@H](C[C@@H](O)c2ccccc2)CCC[C@H]1CC(=O)c1ccccc1` [Lobeline] the figure was 8.05; with `COc1cc2c3cc1Oc1cc(ccc1O)C[C@@H]1c4c(cc(OC)c(O)c4Oc4ccc(cc4)C[C@@H]3N(C)CC2)CC[N+]1(C)C` [Tubocurarine,d], below 5.00.
